One assay concerns the target T1, human 11β-HSD1 (Homo sapiens, UniProt P28845).
T1 construct: 100 ug/ml human/mouse liver microsomes; from tissue; host or cells: human liver microsomes
The assay can be described thus: Enzyme activity analysis on human 11β-HSD1 (HTRF cortisol, liver microsomes). The class given is biochemical. The settings on record: first value of cell. How it is done:
(§1) After culturing at 37° C. for 2 hours, 5 μl of cryptate-labeled anti-cortisol antibody and 5 μl of d2-labeled cortisol were added thereto. After further culturing at room temperature for 2 hours, a homogeneous time-resolved fluorescence (HTRF, Cisbio) signal was measured. From each analysis, based on a standard curve calculated using cortisols of several known concentrations, an amount of produced cortisol was tested.
(§2) While an amount of cortisol, produced without the compound, was used as a control, an inhibition percentage by the test compound, at each concentration, was calculated. By using an inhibition curve calculated by coordinates of inhibition percentage to test compound concentration, an IC50 value of the compound on 11β-HSD1 was obtained.

A further assay addresses T2, mouse 11β-HSD1 (Mus musculus, UniProt P50172).
T2 construct: 100 ug/ml human/mouse liver microsomes; from tissue; host or cells: mouse liver microsomes
The assay can be described thus: Enzyme activity analysis on mouse 11β-HSD1 (HTRF cortisol, liver microsomes). It is filed as biochemical. As to conditions: second value of cell. How it is done: as §1, §2

T1 sequence (P28845 whole entry): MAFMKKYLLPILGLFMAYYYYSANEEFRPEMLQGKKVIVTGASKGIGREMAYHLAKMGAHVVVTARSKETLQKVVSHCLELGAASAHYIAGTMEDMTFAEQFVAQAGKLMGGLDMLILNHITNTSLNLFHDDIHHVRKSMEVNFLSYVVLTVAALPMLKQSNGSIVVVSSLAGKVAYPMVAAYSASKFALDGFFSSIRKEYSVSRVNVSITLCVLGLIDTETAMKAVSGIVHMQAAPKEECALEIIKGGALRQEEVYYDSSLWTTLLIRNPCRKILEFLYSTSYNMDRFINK
T2 sequence (P50172 whole entry): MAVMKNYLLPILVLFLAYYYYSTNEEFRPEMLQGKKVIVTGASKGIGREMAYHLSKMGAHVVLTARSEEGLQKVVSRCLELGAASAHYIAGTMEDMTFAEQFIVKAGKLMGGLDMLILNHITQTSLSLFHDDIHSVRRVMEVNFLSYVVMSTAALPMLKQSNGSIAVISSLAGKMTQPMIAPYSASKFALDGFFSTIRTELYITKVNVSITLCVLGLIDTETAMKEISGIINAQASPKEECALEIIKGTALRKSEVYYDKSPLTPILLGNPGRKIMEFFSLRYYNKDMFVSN

As to `Cc1ccc(S(=O)(=O)NC2(C(=O)NC3C4CC5CC3CC(C(N)=O)(C5)C4)CCCCC2)cc1F` (stereo not drawn) [compound 187, N-4-(1-(3-fluoro-4-methylphenylsulfonamido)cyclohexanecarboxyamido)adamantane-1-carboxyamide], the IC50 on human 11β-HSD1 is 0.076 µM; at mouse 11β-HSD1 it was greater than 2.5 µM.

`NC(=O)C12CC3CC(C1)C(NC(=O)C1(NS(=O)(=O)c4ccccc4F)CCCCC1)C(C3)C2` (stereo not drawn) [compound 185, N-4-(1-(2-fluorophenylsulfonamido)cyclohexanecarboxyamido)adamantane-1-carboxyamide]: the values for the IC50 against human 11β-HSD1 and at mouse 11β-HSD1 were 0.028 µM and 0.119 µM, respectively.

As for `NC(=O)C12CC3CC(C1)C(NC(=O)C1(NS(=O)(=O)c4ccccc4C(F)(F)F)CCCCC1)C(C3)C2` (stereo not drawn) [compound 181, N-4-(1-(2-trifluoromethylphenylsulfonamido)cyclohexanecarboxyamido)adamantane-1-carboxyamide], the results for the IC50 against human 11β-HSD1 and on mouse 11β-HSD1 were 0.019 µM and 0.132 µM, respectively.

As for `CC(C)(NS(=O)(=O)c1cccc(C(F)(F)F)c1)C(=O)NC1C2CC3CC1CC(C(N)=O)(C3)C2` (stereo not drawn) [compound 127], the IC50 was 0.062 µM at human 11β-HSD1 and 0.053 µM at mouse 11β-HSD1.

Take `COc1ccc(S(=O)(=O)NC(C)(C)C(=O)NC2C3CC4CC2CC(C(N)=O)(C4)C3)cc1` (stereo not drawn) [compound 86, N-4-(2-(4-methoxyphenylsulfonamido)-2-methylpropanamido)adamantane-1-carboxyamide]: the half-maximal inhibitory concentration (IC50) on human 11β-HSD1 and against mouse 11β-HSD1 was greater than 2.5 µM throughout.

As for `NC(=O)C12CC3CC(C1)C(NC(=O)C1(NS(=O)(=O)c4ccccc4Cl)CCCC1)C(C3)C2` (stereo not drawn) [compound 170, N-4-(1-(2-chlorophenylsulfonamido)cyclopentanecarboxyamido)adamantane-1-carboxyamide], the values for the IC50 at human 11β-HSD1 and on mouse 11β-HSD1 were 0.011 µM and 0.012 µM, respectively.

Turning to `NC(=O)C12CC3CC(C1)C(NC(=O)C1(NS(=O)(=O)c4ccc(Br)cc4Cl)CCC1)C(C3)C2` (stereo not drawn) [compound 162, N-4-(1-(2-chloro-4-bromophenylsulfonamido)cyclobutanecarboxyamido)adamantane-1-carboxyamide], the figures for the half-maximal inhibitory concentration (IC50) at human 11β-HSD1 and on mouse 11β-HSD1 were 0.04 µM and 0.453 µM, respectively.

Regarding `NC(=O)C12CC3CC(C1)C(NC(=O)C1(NS(=O)(=O)c4ccccc4N)CCC1)C(C3)C2` (stereo not drawn) [compound 221, N-4-(1-(2-aminophenylsulfonamido)cyclobutanecarboxyamido)adamantane-1-carboxyamide], the results for the IC50 on human 11β-HSD1 and on mouse 11β-HSD1 were 0.079 µM and 0.151 µM, respectively.

Regarding `CC(C)(NS(=O)(=O)c1cccc(Br)c1)C(=O)NC1C2CC3CC1CC(C(N)=O)(C3)C2` (stereo not drawn) [compound 123], the figures for the IC50 against human 11β-HSD1 and on mouse 11β-HSD1 were 0.139 µM and 0.291 µM, respectively.

With `CC(C)(NS(=O)(=O)c1ccc(F)cc1C(F)(F)F)C(=O)NC1C2CC3CC(C2)CC1C3` (stereo not drawn) [compound 32, N-(adamantane-2-yl)-2-methyl-2-(4-fluoro-2-trifluoromethylphenylsulfonamido)propanamide], the figures for the IC50 at human 11β-HSD1 and on mouse 11β-HSD1 were 0.051 µM and 0.583 µM, respectively.

With `NC(=O)C12CC3CC(C1)C(NC(=O)C1(NS(=O)(=O)c4ccccc4OC(F)(F)F)CCC1)C(C3)C2` (stereo not drawn) [compound 160, N-4-(1-(2-trifluoromethoxyphenylsulfonamido)cyclobutanecarboxyamido)adamantane-1-carboxyamide], the IC50 came out at 0.018 µM on human 11β-HSD1 and 0.113 µM against mouse 11β-HSD1.

For the compound `CCN(C(C)(C)C(=O)NC1C2CC3CC1CC(C(N)=O)(C3)C2)S(=O)(=O)c1ccccc1N` (stereo not drawn) [compound 224, N-4-(2-(2-amino-N-ethylphenylsulfonamido)-2-methylpropanamido)adamantane-1-carboxyamide], the IC50 against human 11β-HSD1 was determined as 0.011 µM; on mouse 11β-HSD1 it was 0.154 µM.

In the case of `CN(C(C)(C)C(=O)NC1C2CC3CC1CC(C(N)=O)(C3)C2)S(=O)(=O)c1cccc2cccnc12` (stereo not drawn) [compound 188, N-4-(2-methyl-2-(N-methylquinoline-8-sulfonamido)propanamido)adamantane-1-carboxyamide], the half-inhibitory concentration (IC50) stood at 0.013 µM at human 11β-HSD1 and 0.007 µM against mouse 11β-HSD1.

In the case of `NC(=O)C12CC3CC(C1)C(NC(=O)C1(NS(=O)(=O)c4cccc(Cl)c4Cl)CCC1)C(C3)C2` (stereo not drawn) [compound 158, N-4-(1-(2,3-dichlorophenylsulfonamido)cyclobutanecarboxyamido)adamantane-1-carboxyamide], the values for the IC50 at human 11β-HSD1 and on mouse 11β-HSD1 were 0.018 µM and 0.058 µM, respectively.

`Cc1c(Cl)cccc1S(=O)(=O)NC1(C(=O)NC2C3CC4CC2CC(C(N)=O)(C4)C3)CC1` (stereo not drawn) [compound 133, N-4-(1-(2-methyl-3-chlorophenylsulfonamido)cyclopropanecarboxyamido)adamantane-1-carboxyamide]: the IC50 against human 11β-HSD1 turned out to be 0.015 µM; at mouse 11β-HSD1, 0.074 µM.

On to `NC(=O)C12CC3CC(C1)C(NC(=O)C1(NS(=O)(=O)c4ccc(Cl)cc4Cl)CCC1)C(C3)C2` (stereo not drawn) [compound 153, N-4-(1-(2,4-dichlorophenylsulfonamido)cyclobutanecarboxyamido)adamantane-1-carboxyamide], for which the IC50 came to 0.058 µM against human 11β-HSD1 and 0.459 µM at mouse 11β-HSD1.

With `CCN(C(C)(C)C(=O)NC1C2CC3CC1CC(C(N)=O)(C3)C2)S(=O)(=O)c1ccccc1C(F)(F)F` (stereo not drawn) [compound 210, N-4-(2-(2-trifluoromethyl-N-ethylphenylsulfonamido)-2-methylpropanamido)adamantane-1-carboxyamide], the IC50 against human 11β-HSD1 amounted to 0.006 µM; against mouse 11β-HSD1 it was 1.44 µM.

Regarding `CC(C)NC(=O)C12CC3CC(C1)C(NC(=O)C(C)(C)NS(=O)(=O)c1ccccc1Br)C(C3)C2` (stereo not drawn) [compound 228, 4-[2-(2-bromo-benzenesulfonylamino)-2-methyl-propionylamino]-adamantane-1-carboxylic acid isopropylamide], the IC50 against human 11β-HSD1 and at mouse 11β-HSD1 was greater than 2.5 µM each time.

Take `CN(C(C)(C)C(=O)NC1C2CC3CC1CC(O)(C3)C2)S(=O)(=O)c1ccccc1[N+](=O)[O-]` (stereo not drawn) [compound 205, N-(5-hydroxyadamantane-2-yl)-2-(2-nitro-N-methylphenylsulfonamido)-2-methylpropan amide]: the IC50 against human 11β-HSD1 turned out to be 0.005 µM; against mouse 11β-HSD1 it was 0.068 µM.

On to `CC(C)(NS(=O)(=O)c1ccccc1Cl)C(=O)NC1C2CC3CC1CC(C(=O)NC1CCCCC1)(C3)C2` (stereo not drawn) [compound 233, 4-[2-(2-chloro-benzenesulfonylamino)-2-methyl-propionylamino]-adamantane-1-carboxylic acid cyclohexylamide], for which the half-inhibitory concentration (IC50) at human 11β-HSD1 and at mouse 11β-HSD1 was greater than 2.5 µM throughout.

Turning to `CC(C)(NS(=O)(=O)c1cccc(Br)c1)C(=O)NC1C2CC3CC(C2)CC1C3` (stereo not drawn) [compound 64, N-(adamantane-2-yl)-2-methyl-2-(3-bromophenylsulfonamido)propanamide], the IC50 against human 11β-HSD1 was found to be 0.433 µM; on mouse 11β-HSD1, 1.02 µM.

For the compound `NC(=O)C12CC3CC(C1)C(NC(=O)C1(NS(=O)(=O)c4cccc(Cl)c4Cl)CCCCC1)C(C3)C2` (stereo not drawn) [compound 183, N-4-(1-(2,3-dichlorophenylsulfonamido)cyclohexanecarboxyamido)adamantane-1-carboxyamide], the figures for the IC50 against human 11β-HSD1 and against mouse 11β-HSD1 were 0.017 µM and 0.044 µM, respectively.

Take `CC(C)(NS(=O)(=O)c1cc(Cl)cc(Cl)c1)C(=O)NC1C2CC3CC(C2)CC1C3` (stereo not drawn) [compound 26, N-(adamantane-2-yl)-2-methyl-2-(3,5-dichlorophenylsulfonamido)propanamide]: the IC50 on human 11β-HSD1 was 1.27 µM; against mouse 11β-HSD1, greater than 2.5 µM.

Consider `CCN(C(C)(C)C(=O)NC1C2CC3CC1CC(C(N)=O)(C3)C2)S(=O)(=O)c1cccc(Cl)c1Cl` (stereo not drawn) [compound 212], for which the half-inhibitory concentration (IC50) amounted to 0.024 µM at human 11β-HSD1 and 0.191 µM against mouse 11β-HSD1.

Regarding `O=C(NC1C2CC3CC(C2)CC1C3)C1(NS(=O)(=O)c2ccccc2OC(F)(F)F)CCC1` (stereo not drawn) [compound 144, N-(adamantane-2-yl)-1-(2-trifluoromethoxyphenylsulfonamido)cyclobutanecarboxyamide], the 50% inhibitory concentration (IC50) at human 11β-HSD1 was found to be 0.265 µM; against mouse 11β-HSD1, 1.82 µM.

Turning to `NC(=O)C12CC3CC(C1)C(NC(=O)C1(NS(=O)(=O)c4cccc(Cl)c4F)CCCC1)C(C3)C2` (stereo not drawn) [compound 177, N-4-(1-(2-fluoro-3-chlorophenylsulfonamido)cyclopentanecarboxyamido)adamantane-1-carboxyamide], the IC50 amounted to 0.009 µM against human 11β-HSD1 and 0.006 µM at mouse 11β-HSD1.

On to `Cc1cc(F)ccc1S(=O)(=O)NC(C)(C)C(=O)NC1C2CC3CC(C2)CC1C3` (stereo not drawn) [compound 39, N-(adamantane-2-yl)-2-methyl-2-(4-fluoro-2-methylphenylsulfonamido)propanamide], for which the IC50 worked out at 0.043 µM at human 11β-HSD1 and 0.561 µM against mouse 11β-HSD1.

With `CC(C)(NS(=O)(=O)c1cccc(Cl)c1Cl)C(=O)NC1C2CC3CC(C2)CC1C3` (stereo not drawn) [compound 8, N-(adamantane-2-yl)-2-methyl-2-(2,3-dichlorophenylsulfonamido)propanamide], the IC50 against human 11β-HSD1 stood at 0.052 µM; against mouse 11β-HSD1, 0.264 µM.

On to `CC(C)c1ccc(S(=O)(=O)NC(C)(C)C(=O)NC2C3CC4CC(C3)CC2C4)cc1` (stereo not drawn) [compound 57, N-(adamantane-2-yl)-2-methyl-2-(4-isopropylphenylsulfonamido)propanamide], for which the IC50 against human 11β-HSD1 came out at 1.04 µM; at mouse 11β-HSD1 it was 1.32 µM.

For `CC(C)(NS(=O)(=O)c1c(F)cccc1F)C(=O)NC1C2CC3CC1CC(O)(C3)C2` (stereo not drawn) [compound 74, N-(5-hydroxyadamantane-2-yl)-2-methyl-2-(2,6-difluorophenylsulfonamido)propanamide], the IC50 on human 11β-HSD1 came out at 0.079 µM; at mouse 11β-HSD1, 0.305 µM.

(Values after patent US9073830B2 (Hyundai Pharm Co., Ltd., priority 2011, dated 2015).)
